Measured values reported in ChEMBL document CHEMBL4177524, “Discovery of hepatitis B virus capsid assembly inhibitors leading to a heteroaryldihydropyrimidine based clinical candidate (GLS4)” (Bioorg Med Chem, 2017).
pEC50: −log10 of the molar value.

Legend:
[1] = Cytotoxicity in human HepG2.215 cells assessed as reduction in cell viability after 5 days by CCK8 assay; assay type: cell-based, HepG2 2.2.15; details: HepG2.2.15 cells
[2] = biological target: Core antigen (Hepatitis B virus) (UniProt Q03732); assay: Inhibition of hepatitis B virus capsid assembly infected in human HepG2.215 cells assessed as reduction in viral DNA replication measured on day 7 by real time PCR analysis; assay type: cell-based
Chain of Core antigen (Hepatitis B virus) (Q03732 as listed by the source): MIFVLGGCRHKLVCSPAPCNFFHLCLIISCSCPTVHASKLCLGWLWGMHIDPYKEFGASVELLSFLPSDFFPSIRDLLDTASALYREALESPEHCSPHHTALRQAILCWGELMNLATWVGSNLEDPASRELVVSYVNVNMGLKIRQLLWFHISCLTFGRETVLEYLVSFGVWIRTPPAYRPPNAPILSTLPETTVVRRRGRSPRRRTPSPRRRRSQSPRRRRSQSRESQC

Hepatitis B virus [3] = assay: Antiviral activity against telbivudine-resistant hepatitis B virus harboring reverse transcriptase M204I mutant infected in human Huh7 cells assessed as reduction in intracellular DNA levels measured on day 7 by real-time PCR analysis; assay type: functional, organism-based; details: Huh-7, 168 h
Hepatitis B virus [4] = assay: Antiviral activity against telbivudine-resistant hepatitis B virus harboring reverse transcriptase L180M/M204V double mutant infected in human Huh7 cells assessed as reduction in intracellular DNA levels measured on day 7 by real-time PCR analysis; assay type: functional, organism-based; details: Huh-7, 168 h
Hepatitis B virus [5] = assay: Antiviral activity against telbivudine-resistant hepatitis B virus harboring reverse transcriptase M204I mutant infected in human Huh7 cells assessed as reduction in secreted DNA levels measured on day 7 by real-time PCR analysis; assay type: functional, organism-based; details: Huh-7, 168 h
Hepatitis B virus [6] = assay: Antiviral activity against telbivudine-resistant hepatitis B virus harboring reverse transcriptase L180M/M204V double mutant infected in human Huh7 cells assessed as reduction in secreted DNA levels measured on day 7 by real-time PCR analysis; assay type: functional, organism-based; details: Huh-7, 168 h
Hepatitis B virus [7] = assay: Antiviral activity against telbivudine-resistant wild type hepatitis B virus infected in human Huh7 cells assessed as reduction in secreted DNA levels measured on day 7 by real-time PCR analysis; assay type: functional, organism-based; details: Huh-7, 168 h

SMILES	CC50 at 120 h [1]	EC90 [2]	pEC50 (Hepatitis B virus [3])	pEC50 (Hepatitis B virus [4])	pEC50 (Hepatitis B virus [5])	pEC50 (Hepatitis B virus [6])	pEC50 (Hepatitis B virus [7])
Nc1ncnc2c1ncn2CCOCP(=O)(O)O [ADEFOVIR]	200 µM						
COC(=O)C1=C(C)NC(c2ncc(F)cc2F)=N[C@H]1c1ccc(F)cc1Cl		0.102 µM					
Cc1cn([C@@H]2C[C@@H](O)[C@H](CO)O2)c(=O)[nH]c1=O [TELBIVUDINE]	> 200 µM		< 4.70	< 4.70	< 4.70	< 4.70	6.24
COC(=O)C1=C(C)NC(c2nccs2)=N[C@H]1c1ccc(F)cc1Cl	> 45 µM	0.3 µM					
